Like-named read-outs stand apart in the source and are kept apart here.
Columns and labels:
[1] = molecular target: SQR of 06STD024 (SDHC / altC) mitochondria (Zymoseptoria tritici, UniProt A0A1X7RQW2+F9X9V6+F9XH52+O42772); assay: Succinate-quinone (SQR) SDHI sensitivity assay on purified mitochondria, 06STD024; assay type: biochemical; conditions: mitochondria of field isolate 06STD024; mean of three ± SD
Protocol: (§1) Succinate-ubiquinone oxidoreductase (SQR) inhibition assays were performed on mitochondrial extracts from a panel of strains that were (i) either carrying a unique C-subunit encoding gene (ZtSDHC1, ZtSDHC1_A84I or Zt-SDHC3), or (ii) carrying two C-subunit encoding genes ZtSDHC1 and ZtSDHC3 (Table 1).
(§2) Biomass production, mitochondrial extraction and purification were performed as described in [14]. Succinate: ubiquinone/DCPIP sensitivity tests were performed as described in [14] with minor modification.

[2] = molecular target: SQR (SDHC / altC) of IPO323 pTet::SDHC3 transformant, repressed (Zymoseptoria tritici, UniProt A0A1X7RQW2+F9X9V6+F9XH52+O42772); assay: Succinate-quinone (SQR) SDHI sensitivity assay on purified mitochondria, IPO323 pTet::SDHC3 repressed; assay type: biochemical; conditions: IPO323 pTet::SDHC3 transformant grown in presence of 30 mg.L^-1 doxycycline; mean of three ± SD
Sequence of SQR (SDHC / altC) of IPO323 pTet::SDHC3 transformant, repressed (F9XH52 44-187): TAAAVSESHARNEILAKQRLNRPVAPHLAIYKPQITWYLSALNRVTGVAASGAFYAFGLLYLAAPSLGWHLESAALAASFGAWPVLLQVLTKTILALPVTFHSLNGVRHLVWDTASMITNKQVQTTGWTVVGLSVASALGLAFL
Sequence of SQR (SDHC / altC) of IPO323 pTet::SDHC3 transformant, repressed (O42772 20-297): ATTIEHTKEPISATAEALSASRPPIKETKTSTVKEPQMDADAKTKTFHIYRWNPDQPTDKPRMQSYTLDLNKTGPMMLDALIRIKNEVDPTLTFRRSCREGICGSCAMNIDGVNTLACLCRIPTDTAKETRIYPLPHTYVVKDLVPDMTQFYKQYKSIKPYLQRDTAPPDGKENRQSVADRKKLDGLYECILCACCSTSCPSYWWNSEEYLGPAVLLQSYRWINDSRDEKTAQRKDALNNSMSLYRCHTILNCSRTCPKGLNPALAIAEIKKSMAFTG
Sequence of SQR (SDHC / altC) of IPO323 pTet::SDHC3 transformant, repressed (F9X9V6 1-193): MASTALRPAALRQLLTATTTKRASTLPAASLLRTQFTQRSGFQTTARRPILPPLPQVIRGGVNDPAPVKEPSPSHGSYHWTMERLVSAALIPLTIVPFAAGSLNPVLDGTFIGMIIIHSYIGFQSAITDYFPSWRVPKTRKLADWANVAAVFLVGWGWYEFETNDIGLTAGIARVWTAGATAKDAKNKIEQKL
Sequence of SQR (SDHC / altC) of IPO323 pTet::SDHC3 transformant, repressed (A0A1X7RQW2 36-181): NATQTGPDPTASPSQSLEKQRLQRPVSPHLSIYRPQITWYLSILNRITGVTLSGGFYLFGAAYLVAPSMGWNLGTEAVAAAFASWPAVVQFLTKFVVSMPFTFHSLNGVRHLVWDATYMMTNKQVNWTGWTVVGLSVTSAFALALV
Sequence of SQR (SDHC / altC) of IPO323 pTet::SDHC3 transformant, repressed (F9WWR1 41-643 partner): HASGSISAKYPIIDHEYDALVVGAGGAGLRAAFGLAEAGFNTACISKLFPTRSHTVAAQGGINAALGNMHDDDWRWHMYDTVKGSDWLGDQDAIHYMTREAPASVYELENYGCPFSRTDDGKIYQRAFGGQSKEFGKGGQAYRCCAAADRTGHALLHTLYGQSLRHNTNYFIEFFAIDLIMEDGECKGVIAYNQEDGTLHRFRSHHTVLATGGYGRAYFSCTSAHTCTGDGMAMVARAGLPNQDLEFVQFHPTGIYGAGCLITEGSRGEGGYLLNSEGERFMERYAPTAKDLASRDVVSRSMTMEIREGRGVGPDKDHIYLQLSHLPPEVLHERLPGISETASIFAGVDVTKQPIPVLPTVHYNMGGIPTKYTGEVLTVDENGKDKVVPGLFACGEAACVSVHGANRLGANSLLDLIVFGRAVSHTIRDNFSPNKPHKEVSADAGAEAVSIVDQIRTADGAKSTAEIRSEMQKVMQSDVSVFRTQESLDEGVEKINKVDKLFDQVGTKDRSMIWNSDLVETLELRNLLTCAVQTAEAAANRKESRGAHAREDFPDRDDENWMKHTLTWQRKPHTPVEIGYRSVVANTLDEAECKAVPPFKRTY
Protocol: as §1, §2

[3] = molecular target: WT-SQR (SDHC), IPO323 mitochondria (Zymoseptoria tritici, UniProt F9X9V6+F9XH52+O42772); assay: Succinate-quinone (SQR) SDHI sensitivity assay on purified mitochondria, IPO323; assay type: biochemical
Protocol: as §1
(§3) Biomass production, mitochondrial extraction and purification were performed as described in [14]. Succinate: ubiquinone/DCPIP sensitivity tests were performed as described in [14] with minor modification. The different mitochondrial suspensions were adjusted to similar initial velocity (1 OD595nm hour^-1) and inhibitor concentrations ranged between 0.047nM and 50μM with uniform 4x dilution steps (11 concentrations + DMSO control). Calculated absorbance slopes (OD/min) were used for IC50 calculations using GraphPad Prism 6.07 software non-linear curve fitting against log inhibitor concentrations.

[4] = molecular target: SQR (SDHC) of D024 SDHC3 KO mitochondria (Zymoseptoria tritici, UniProt F9X9V6+F9XH52+O42772); assay: Succinate-quinone (SQR) SDHI sensitivity assay on purified mitochondria, 06STD024 SDHC3 KO; assay type: biochemical; conditions: for RF (resistance factor), D024 SDHC3 KO (SDHC): IC50 ratio compared to IPO323 values; for IC50: mitochondria of 06STD024 ZtSDHC3 deletion mutant, mean of three ± SD
Sequence of SQR (SDHC) of D024 SDHC3 KO mitochondria (F9XH52 44-187): as the sequence (F9XH52 44-187) above
Sequence of SQR (SDHC) of D024 SDHC3 KO mitochondria (O42772 19-297): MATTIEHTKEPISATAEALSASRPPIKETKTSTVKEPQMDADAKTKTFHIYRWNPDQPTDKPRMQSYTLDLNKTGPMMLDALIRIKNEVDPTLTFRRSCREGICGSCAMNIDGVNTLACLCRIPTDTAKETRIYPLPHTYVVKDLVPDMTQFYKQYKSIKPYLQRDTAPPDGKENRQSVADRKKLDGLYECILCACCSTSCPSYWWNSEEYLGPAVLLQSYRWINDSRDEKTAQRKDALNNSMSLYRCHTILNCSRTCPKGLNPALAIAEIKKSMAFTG
Sequence of SQR (SDHC) of D024 SDHC3 KO mitochondria (F9X9V6 1-193): as the sequence (F9X9V6 1-193) above
Sequence of SQR (SDHC) of D024 SDHC3 KO mitochondria (F9WWR1 29-643 partner): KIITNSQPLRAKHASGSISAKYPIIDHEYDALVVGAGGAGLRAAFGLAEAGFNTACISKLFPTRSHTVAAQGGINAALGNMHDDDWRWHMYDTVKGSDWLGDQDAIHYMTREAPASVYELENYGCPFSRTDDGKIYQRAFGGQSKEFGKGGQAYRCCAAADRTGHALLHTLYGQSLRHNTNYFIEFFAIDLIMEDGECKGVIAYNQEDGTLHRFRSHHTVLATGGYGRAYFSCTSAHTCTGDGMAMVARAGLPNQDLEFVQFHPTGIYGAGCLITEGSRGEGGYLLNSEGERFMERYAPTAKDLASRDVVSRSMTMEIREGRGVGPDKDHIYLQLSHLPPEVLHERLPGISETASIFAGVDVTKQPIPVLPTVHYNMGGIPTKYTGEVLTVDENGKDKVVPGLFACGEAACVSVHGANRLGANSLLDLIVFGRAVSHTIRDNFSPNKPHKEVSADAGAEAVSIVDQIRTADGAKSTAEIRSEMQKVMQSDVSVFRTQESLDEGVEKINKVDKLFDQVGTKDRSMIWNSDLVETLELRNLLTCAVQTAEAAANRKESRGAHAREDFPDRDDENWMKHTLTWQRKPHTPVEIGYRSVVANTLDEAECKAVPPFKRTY
Protocol: as §1, §3

[5] = molecular target: altC-SQR (altC) of D024 SDHC1 KO mitochondria (Zymoseptoria tritici, UniProt A0A1X7RQW2+F9X9V6+O42772); assay: Succinate-quinone (SQR) SDHI sensitivity assay on purified mitochondria, 06STD024 SDHC1 KO; assay type: biochemical; conditions: mitochondria of 06STD024 ZtSDHC1 deletion mutant (pure altC-SQR); mean of three ± SD
Sequence of altC-SQR (altC) of D024 SDHC1 KO mitochondria (A0A1X7RQW2 36-181): as the sequence (A0A1X7RQW2 36-181) above
Sequence of altC-SQR (altC) of D024 SDHC1 KO mitochondria (O42772 20-297): as the sequence (O42772 20-297) above
Sequence of altC-SQR (altC) of D024 SDHC1 KO mitochondria (F9X9V6 1-193): as the sequence (F9X9V6 1-193) above
Sequence of altC-SQR (altC) of D024 SDHC1 KO mitochondria (F9WWR1 41-643 partner): as the sequence (F9WWR1 41-643 partner) above
Protocol: as §1, §2

[6] = test system: Zymoseptoria tritici field and genetically modified strains; assay: Liquid culture assay for fungicide sensitivity determination; assay type: cell-based; conditions: Zymoseptoria tritici, liquid culture sensitivity
Protocol: Sensitivity towards commercial fungicides was determined for a set of 99 SHA-SDHI-naïve Z. tritici field isolates sampled in Europe between 2006 and 2009. The EC50 of these isolates was determined in liquid growth assays and the data obtained compared for each possible pair of SDHI fungicides (cross-resistance (XR) plots, Fig 1). […] Comparative succinate-quinone reductase (SQR) enzyme inhibition tests were performed with mitochondria extracted from a panel of SHA-SDHIs tolerant and sensitive isolates.
In order to characterize in more depth the mechanisms driving sensitivity differences across the isolates, a subset of eight isolates carrying the ZtSDHC3 gene was analyzed for their sensitivity to SDHIs, alt-SDHC expression and splicing patterns. Liquid culture growth sensitivity tests were performed to determine EC50s for this set of isolates towards a wide range of commercial and research SDHIs (S5 Table).
Pre-culture of the inoculum and fungicide sensitivity tests were performed following previously described procedures. Different ranges of inhibitor concentrations were used for population monitoring and for the detailed phenotyping of a selected set of individual field isolates and genetically modified strains. For fungicide sensitivity monitoring of European field populations, final inhibitors concentrations were between 100 mg.L^-1 and 0.0001 mg.L^-1 with uniform 10x dilution steps (7 inhibitor concentrations + DMSO control). For refined sensitivity analysis of a smaller panel of isolates final inhibitor concentrations ranged between 0.5 mM and 0.47 nM with uniform 4x dilution factor steps (11 inhibitor concentrations+ DMSO control).

[7] = test system: SQR (SDHC / altC) of IPO323 pTet::SDHC3 transformant, induced; assay: Succinate-quinone (SQR) SDHI sensitivity assay on purified mitochondria, IPO323 pTet::SDHC3 induced; assay type: biochemical, Zymoseptoria tritici; conditions: IPO323 pTet::SDHC3 transformant grown in the absence of doxycycline; mean of three ± SD
Protocol: as §1, §2

[8] = read-out: EC50 (nM) Mean, strain 06STD024
[9] = read-out: EC50 (nM) Mean, strain 07STGB009
[10] = read-out: EC50 (nM) Mean, strain 09STD041
[11] = read-out: EC50 (nM) Mean, strain 09STD053
[12] = read-out: EC50 (nM) Mean, strain 09STF011
[13] = read-out: EC50 (nM) Mean, strain 09STF037
[14] = read-out: EC50 (nM) Mean, strain 09STF112
[15] = read-out: EC50 (nM) Mean, strain 09STIR20.3
[16] = read-out: EC50 (nM) Mean, strain Flu21 (SDHC1_A84I)
[17] = read-out: EC50 (nM) Mean, strain IPO323
[18] = read-out: EC50 (nM) Mean, strain IPO94269
[19] = read-out: EC50 (nM) Mean, strain KO_SDHC1_T1
[20] = read-out: EC50 (nM) Mean, strain KO_SDHC1_T3
[21] = read-out: EC50 (nM) Mean, strain KO_SDHC3_T4
[22] = read-out: EC50 (nM) Mean, strain KO_SDHC3_T13
[23] = read-out: EC50 (nM) Mean, strain pTet::SDHC3_I78A_T1
[24] = read-out: EC50 (nM) Mean, strain pTet::SDHC3_I78A_T5
[25] = read-out: EC50 (nM) Mean, strain pTet::SDHC3_I78A_T15
[26] = read-out: EC50 (nM) Mean, strain pTet::SDHC3_I78A_T35
[27] = read-out: EC50 (nM) Mean, strain pTet::SDHC3_T1
[28] = read-out: EC50 (nM) Mean, strain pTet::SDHC3_T2
[29] = read-out: EC50 (nM) Mean, strain pTet::SDHC3_T3
[30] = read-out: EC50 (nM) Mean, strain pTet::SDHC3_T7

Row | Structure (SMILES) | IC50 [1] | IC50 [2] | IC50 [3] | RF (resistance factor), D024 SDHC3 KO (SDHC) [4] | IC50 [4] | IC50 [5] | EC50 [6, 8] | EC50 [6, 9] | EC50 [6, 10] | EC50 [6, 11] | EC50 [6, 12] | EC50 [6, 13] | EC50 [6, 14] | EC50 [6, 15] | EC50 [6, 16] | EC50 [6, 17] | EC50 [6, 18] | EC50 [6, 19] | EC50 [6, 20] | EC50 [6, 21] | further results
1 | C[C@@H](Cc1ccc(Cl)cc1Cl)NC(=O)c1cn(C)nc1C(F)F [Compound 2] | 0.415 ± 0.068 µM | 0.0156 ± 0.0039 µM | 0.0053 ± 0.0006 µM | 0.7 | 0.0037 ± 0.0005 µM | 0.358 ± 0.0634 µM | 2320 nM | 4000 nM | 702 nM | 367 nM | 606 nM | 178 nM | 786 nM | 259 nM | 5450 nM | 96.4 nM | 161 nM | 10400 nM | 8310 nM | 299 nM | EC50 [6, 22]: 309 nM; EC50 [6, 23]: 168 nM; EC50 [6, 24]: 332 nM; EC50 [6, 25]: 150 nM; EC50 [6, 26]: 100 nM; EC50 [6, 27]: 6140 nM; EC50 [6, 28]: 5160 nM; EC50 [6, 29]: 5660 nM; EC50 [6, 30]: 7400 nM; IC50 [7]: 0.204 ± 0.0207 µM
2 | Cn1cc(C(=O)NCCc2ccc(Cl)cc2Cl)c(C(F)F)n1 [Compound 1] | 0.875 ± 0.159 µM | 0.152 ± 0.0175 µM | 0.113 ± 0.0109 µM | 0.7 | 0.0794 ± 0.0076 µM | 0.94 ± 0.238 µM | 14700 nM | 15700 nM | 6050 nM | 6070 nM | 7870 nM | 4910 nM | 8980 nM | 4360 nM | 49100 nM | 3580 nM | 2710 nM | 125000 nM | 78800 nM | 9090 nM | EC50 [6, 22]: 7200 nM; EC50 [6, 23]: 4610 nM; EC50 [6, 24]: 7960 nM; EC50 [6, 25]: 3300 nM; EC50 [6, 26]: 4430 nM; EC50 [6, 27]: 33300 nM; EC50 [6, 28]: 35300 nM; EC50 [6, 29]: 22900 nM; EC50 [6, 30]: 35300 nM; IC50 [7]: 0.484 ± 0.0428 µM
